In patent US8993552B2, “Compositions and methods for treatment of leukemia” (The Regents of The University of Michigan, priority 2009, dated 2015):
“Also recorded” adds a separate entry of the source. Blank lines part the entries; values can stand above or below the molecule they belong to.

How the values were obtained:
[1] = biological target: T1, menin-MLL interaction (Homo sapiens (Human), UniProt O00255); experiment: HTRF (TR-FRET) assay, His-tagged menin and biotinylated MLL peptide; format: binding
[2] = biological target: T1, menin-MLL interaction; experiment: Fluorescence polarization (FP) competition assay with fluorescein-labeled MLL peptide; format: binding; conditions: for in vitro activity in FP assay relative to parent Compound 1: in words;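 for all read-outs here: Read-out is fluorescence anisotropy of fluorescein-labeled MLL peptide bound to menin, inhibitors displace the peptide and lower anisotropy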
[3] = tested on: Hep-G2 (liver) cell line; experiment: MTT viability assay, liver cell line
[4] = tested on: HK-2 (kidney) cell line; experiment: MTT viability assay, kidney cell line
[5] = biological target: menin (Homo sapiens (Human), UniProt O00255); experiment: NMR STD / competition STD binding experiments; conditions: 2.5 μM menin
[6] = tested on: human leukemia cell lines with MLL translocations (MV4;11, KOPN-8, THP-1, MonoMac6); experiment: MTT viability assay in MLL leukemia cell lines; format: cell-based; conditions: in words
[7] = tested on: Hoxa9 promoter; experiment: Luciferase reporter assay in HEK293 cells transfected with MLL-AF9
[8] = tested on: non-MLL leukemia cell lines (Kasumi-1, ME-1); experiment: MTT viability assay in non-MLL leukemia cell lines; format: cell-based, human; conditions: Kasumi-1 (AML1-ETO), ME-1 (CBFβ-SMMHC)
[9] = tested on: Hoxa9 and Meis1 expression; experiment: qRT-PCR of MLL downstream targets in THP-1 cells
[10] = tested on: THP-1 leukemia cells; experiment: Differentiation of THP-1 cells, CD11b by flow cytometry; format: cell-based, human
Source text: Thienopyrimidine and benzodiazepine compounds induce differentiation of the MLL leukemia cells.

[11] = biological target: T1, menin-MLL interaction; conditions: 50 μM and 25 μM compound, vs DMSO control
[12] = Table 1, NA = no activity, NS = no saturation on titration curve, read-out: IC50 in FP assay with FLSN-MLL
[13] = Table 1, NA = no activity, NS = no saturation on titration curve
[14] = Table 3, NA = no activity, read-out: IC50 in FP assay with FLSN-MLL
[15] = FP competition, read-out: IC50 for inhibition of the menin-MLL interaction
[16] = Table 4, NA = no activity, NS not defined in this table, read-out: IC50 in FP assay with FLSN-MLL
[17] = Table 2, FP assay, read-out: IC50

T1 sequence (O00255 whole entry): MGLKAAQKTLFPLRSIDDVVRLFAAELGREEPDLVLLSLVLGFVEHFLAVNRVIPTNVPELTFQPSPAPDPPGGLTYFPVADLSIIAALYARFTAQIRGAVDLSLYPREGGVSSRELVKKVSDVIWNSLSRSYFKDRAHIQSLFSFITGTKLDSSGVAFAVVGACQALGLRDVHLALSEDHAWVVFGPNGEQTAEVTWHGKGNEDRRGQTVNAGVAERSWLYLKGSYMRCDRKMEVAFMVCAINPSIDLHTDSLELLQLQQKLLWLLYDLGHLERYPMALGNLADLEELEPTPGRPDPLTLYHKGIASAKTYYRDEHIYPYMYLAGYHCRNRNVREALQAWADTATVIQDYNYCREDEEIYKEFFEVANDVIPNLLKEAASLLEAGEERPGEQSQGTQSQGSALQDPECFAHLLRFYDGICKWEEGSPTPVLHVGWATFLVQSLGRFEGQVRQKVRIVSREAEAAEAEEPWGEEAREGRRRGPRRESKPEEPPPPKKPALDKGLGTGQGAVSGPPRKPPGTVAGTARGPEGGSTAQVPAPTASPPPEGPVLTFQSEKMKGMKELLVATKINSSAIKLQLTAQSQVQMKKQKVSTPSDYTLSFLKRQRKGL
Chain of menin (O00255 whole entry): as above

Structure (SMILES): c1cn(CCCNc2ncnc3sc4c(c23)CCCCC4)cn1 [Compound 3]
IC50 ([1]; Table 1): 35 µM
IC50 [2, 12]: 83 µM

Structure (SMILES): CCc1cc2c(N3CCN(C)CC3)ncnc2s1 [Compound 7]
IC50 [2]: 170 µM

Structure (SMILES): CN1CCN(c2ncnc3oc(-c4ccccc4)c(-c4ccccc4)c23)CC1 [Compound 11]
IC50 [2, 12]: 500 µM

Structure (SMILES): CCOC(=O)c1sc2nc(CN3CCOCC3)nc(N3CCN(c4nccs4)CC3)c2c1C [Compound 12]
IC50 in FP assay with FLSN-MLL [2, 13]: NA up to 100 μM

Structure (SMILES): Cc1csc(N2CCN(c3nc(CN4CCOCC4)nc4sc5c(c34)CCC(C)C5)CC2)n1 (stereo not shown) [Compound 14]
IC50 [2, 12]: 250 µM

Structure (SMILES): Cc1csc(N2CCN(c3nc(C)nc4sc5c(c34)CCCC5)CC2)n1 [Compound 15]
IC50 [2, 12]: 49 µM

Structure (SMILES): CC(=O)N1c2ccccc2NC2=C(C(=O)CC(c3ccc(C(C)(C)C)cc3)C2)C1c1ccncc1 (stereo not shown) [Compound 33]
IC50 ([1]; Table 3): 28 µM
IC50 [2, 14]: 29 µM
toxicity in viability assay [3]: no substantial signs of toxicity
toxicity in viability assay [4]: no substantial signs of toxicity
binding to menin by NMR (STD, competition STD with MLL peptide) [5]: specific binding

Structure (SMILES): CC1(C)CC(=O)C2=C(C1)Nc1ccccc1NC2c1ccc2c(c1)OCO2 (stereo not shown) [Compound 34]
IC50 [2, 14]: 12 µM

Structure (SMILES): COc1cc(C2Nc3ccccc3NC3=C2C(=O)CC(C)(C)C3)cc(OC)c1OC (stereo not shown) [Compound 35]
IC50 [2, 14]: 35 µM

Structure (SMILES): O=C1CC(c2ccc3c(c2)OCO3)CC2=C1C(c1cccnc1)Nc1ccccc1N2 (stereo not shown) [Compound 36]
IC50 [2, 14]: 63 µM

Structure (SMILES): COc1ccc(C2CC(=O)C3=C(C2)Nc2ccccc2NC3c2cccnc2)cc1OC (stereo not shown) [Compound 37]
IC50 [2, 14]: 100 µM

Structure (SMILES): COc1ccc(C2CC(=O)C3=C(C2)Nc2ccccc2NC3c2ccccc2C)cc1OC (stereo not shown) [Compound 38]
IC50 [2, 14]: 115 µM

Structure (SMILES): O=C1CC(c2ccc3c(c2)OCO3)CC2=C1C(c1ccncc1)Nc1ccccc1N2 (stereo not shown) [Compound 39]
growth inhibition of MLL leukemia cells [6]: no effect; also recorded: no growth inhibition
IC50 [2, 14]: 230 µM
transactivation of the Hoxa9 promoter [7]: No effect

Structure (SMILES): Nc1cccc(-c2cccnc2)c1 [Compound 42]
IC50 [2, 15]: 50 µM
IC50 [2, 16]: 50 µM
binding to menin by NMR (STD, competition STD with MLL peptide) [5]: Binding to menin was confirmed

Structure (SMILES): NC(=O)Cc1nc(-c2ccc(F)cc2)cs1 [Compound 43]
IC50 ([1]; Table 4): 200 µM
IC50 [2, 16]: 230 µM
binding to menin by NMR (STD, competition STD with MLL peptide) [5]: Binding to menin was confirmed

Structure (SMILES): Cc1nn(-c2ccccc2)nc1C(N)=O [Compound 44]
IC50 [2, 16]: 380 µM
binding to menin by NMR (STD, competition STD with MLL peptide) [5]: Binding to menin was confirmed

Structure (SMILES): OCc1ccc(-c2ccncc2)cc1 [Compound 45]
IC50 [2, 16]: 510 µM
binding to menin by NMR (STD, competition STD with MLL peptide) [5]: Binding to menin was confirmed

Structure (SMILES): NC(=O)Cc1nc(-c2ccccc2)cs1 [Compound 46]
IC50 [2, 16]: 2000 µM

Structure (SMILES): COc1ccc(-c2csc(CC(N)=O)n2)cc1 [Compound 47]
IC50 ([1]; Table 4): 33 µM
IC50 [2, 16]: 67 µM
potency relative to the original hit (6G10) ([2]; inhibition of the menin-MLL interaction): about 4 fold

Structure (SMILES): O=C(Cc1nc(-c2ccccc2)cs1)Nc1ccccc1 [Compound 48]
D in FP assay ([2]; Table 4, at 0.5 mM): 30%

Structure (SMILES): NC(=O)Cc1nc(-c2ccc(Br)cc2)cs1 [Compound 49]
D in FP assay ([2]; Table 4, at 1.0 mM): 10%

Structure (SMILES): Cc1ccccc1NC(=O)Cc1nc(-c2ccc(F)cc2)cs1 [Compound 50]
IC50 [2, 16]: 122 µM

Structure (SMILES): COC(=O)Cc1nc(C2CCCCC2)cs1 [Compound 51]
IC50 [2, 16]: 1900 µM

Structure (SMILES): O=C(Cc1nc(-c2ccc(F)cc2)cs1)N1CCOCC1 [Compound 52]
IC50 [2, 16]: 107 µM

Structure (SMILES): O=C(Cc1nc(-c2ccc(Cl)cc2)cs1)NCc1ccccc1 [Compound 53]
IC50 [2, 16]: 1060 µM

Structure (SMILES): NC(=O)Cc1nc(-c2cccc(Cl)c2)cs1 [Compound 54]
IC50 [2, 16]: 137 µM

Structure (SMILES): Cc1ccc(-c2csc(CC(N)=O)n2)cc1C [Compound 56]
D in FP assay ([2]; Table 4, at 0.5 mM): 30%

Structure (SMILES): Cc1cc(C)c(-c2csc(CC(N)=O)n2)cc1C [Compound 57]
IC50 [2, 16]: 1200 µM

Structure (SMILES): COc1ccc(-c2csc(CC(N)=O)n2)cc1Br [Compound 58]
IC50 [2, 16]: 80 µM

Structure (SMILES): CCCC(=O)Nc1ccc(-c2nc(CC(N)=O)sc2C)cc1 [Compound 59]
IC50 [2, 16]: 830 µM

Structure (SMILES): Cc1sc2ncnc(NC3CCN(Cc4ccccc4)CC3)c2c1C [Compound 77]
IC50 [2, 17]: 8.7 µM

Structure (SMILES): c1ccc(CN2CCC(Nc3ncnc4sc5c(c34)CCC5)CC2)cc1 [Compound 78]
IC50 [2, 17]: 12 µM

Structure (SMILES): CC1CCc2c(sc3ncnc(NC4CCN(Cc5ccccc5)CC4)c23)C1 (stereo not shown) [Compound 79]
IC50 [2, 17]: 20 µM

Structure (SMILES): CCc1cc2c(NC3CCN(Cc4ccccc4)CC3)ncnc2s1 [Compound 80]
IC50 [2, 17]: 1.3 µM

Structure (SMILES): CCc1cc2c(NCC3CCN(Cc4cccc(C)c4)CC3)ncnc2s1 [Compound 81]
IC50 [2, 17]: 40 µM

Structure (SMILES): CCc1cc2c(NCC3CCN(Cc4ccc(F)cc4)CC3)ncnc2s1 [Compound 82]
IC50 [2, 17]: 4.4 µM

Structure (SMILES): CCc1cc2c(NCCN(CC)Cc3ccccc3)ncnc2s1 [Compound 83]
IC50 [2, 17]: 27 µM

Structure (SMILES): CC(=O)N1c2ccccc2NC2=C(C(=O)CC(c3ccc(C)cc3)C2)C1c1cccnc1 (stereo not shown) [Compound 84]
IC50 [2, 14]: 100 µM

Structure (SMILES): COc1ccc(C2CC(=O)C3=C(C2)Nc2ccccc2N(C(C)=O)C3c2cccnc2)cc1 (stereo not shown) [Compound 85]
IC50 [2, 14]: 72 µM

Structure (SMILES): CC(=O)N1c2ccccc2NC2=C(C(=O)CC(c3ccc(Cl)c(Cl)c3)C2)C1c1cccnc1 (stereo not shown) [Compound 86]
growth inhibition of MLL leukemia cells [6]: strongly inhibited growth
IC50 [2, 15]: 7.4 µM
IC50 [2, 14]: 7.4 µM
effect on growth of non-MLL leukemia cell lines [8]: no or very limited effect on cell growth
expression level of Hoxa9 and Meis1 [9]: Downregulation of Hoxa9 and Meis1 expression

More lines, main results first:

IC50 ([1]; Table 1): 85 µM
IC50 [2, 12]: 42 µM
Structure (SMILES): CCc1cc2c(N3CCN(Cc4ccccc4)CC3)ncnc2s1 [Compound 2]

IC50 [2, 12]: 60 µM
Structure (SMILES): CCc1cc2c(N3CCN(c4ccccn4)CC3)ncnc2s1 [Compound 8]

IC50 [2, 12]: 250 µM
Structure (SMILES): CCc1cc2c(N3CCN(c4ncccn4)CC3)ncnc2s1 [Compound 10]

IC50 [2, 12]: 71 µM
Structure (SMILES): Cc1c(-c2ccccc2)sc2ncnc(N3CCN(c4nccs4)CC3)c12 [Compound 16]

IC50 in FP assay with FLSN-MLL [2, 13]: NA up to 250 uM
Structure (SMILES): CCN(CC)Cc1nc(N2CCN(c3nccs3)CC2)c2c(C)c(C)sc2n1 [Compound 17]

IC50 [2, 12]: 125 µM
Structure (SMILES): Fc1ccc(-c2csc3ncnc(N4CCN(c5nccs5)CC4)c23)cc1 [Compound 20]

IC50 [2, 12]: 50 µM
Structure (SMILES): c1ccc(-c2cc3c(N4CCN(c5nccs5)CC4)ncnc3s2)cc1 [Compound 21]

IC50 in FP assay with FLSN-MLL [2, 13]: NA up to 1 mM
Structure (SMILES): c1cnc(N2CCN(c3ncnc4sccc34)CC2)nc1 [Compound 24]

IC50 [2, 12]: 350 µM
Structure (SMILES): CN1CCCN(c2ncnc3sccc23)CC1 [Compound 27]

IC50 in FP assay with FLSN-MLL [2, 13]: NA up to 250 μM
Structure (SMILES): Cc1cc2c(N3CCN(c4ccccc4)CC3)ncnc2s1 [Compound 29]

IC50 [2, 12]: 29.5 µM
Structure (SMILES): c1csc(N2CCN(c3ncnc4sccc34)CC2)n1 [Compound 31]

IC50 [2, 17]: 30 µM
Structure (SMILES): CCc1cc2c(N3CCN(Cc4ccc(Cl)cc4)CC3)ncnc2s1 [Compound 60]

IC50 [2, 17]: 20 µM
Structure (SMILES): CCc1cc2c(N3CCN(CC(=O)N4CCOCC4)CC3)ncnc2s1 [Compound 61]

IC50 [2, 17]: 10 µM
Structure (SMILES): CCc1cc2c(N3CCN(C(=O)c4ccccc4)CC3)ncnc2s1 [Compound 62]

IC50 [2, 17]: 12 µM
Structure (SMILES): CCc1cc2c(N3CCN(C(=O)c4ccco4)CC3)ncnc2s1 [Compound 63]
effect on growth of non-MLL leukemia cell lines [8]: No or very limited effect
expression level of Hoxa9 and Meis1 [9]: Downregulation

IC50 [2, 17]: 1.1 µM
in vitro activity in FP assay relative to parent Compound 1 [2]: more potent activity
Structure (SMILES): CCc1cc2c(N3CCN(c4nnc(C(F)(F)F)s4)CC3)ncnc2s1.Cl [Compound 66]

IC50 [2, 17]: 0.65 µM
in vitro activity in FP assay relative to parent Compound 1 [2]: more potent activity
inhibition of the menin-MLL interaction in cells (co-IP) [11]: effectively inhibit
Structure (SMILES): CC(C)c1cc2c(N3CCN(C4=NCC(C)(C)S4)CC3)ncnc2s1 [Compound 67]
expression of CD11b on the cell surface [10]: increased expression of CD11b

IC50 [2, 17]: 2.4 µM
Structure (SMILES): CC(C)c1cc2c(N3CCN(c4nnc(C(F)(F)F)s4)CC3)ncnc2s1 [Compound 68]

IC50 [2, 17]: 16 µM
Structure (SMILES): CCc1cc2c(N3CCN(CC(=O)N4CCN(C)CC4)CC3)ncnc2s1 [Compound 69]

IC50 [2, 17]: 4.6 µM
Structure (SMILES): CC1(C)CN=C(N2CCN(c3ncnc4sc(Cc5ccccc5)cc34)CC2)S1 [Compound 71]

IC50 [2, 17]: 4.8 µM
Structure (SMILES): CC1(C)CN=C(N2CCN(c3ncnc4sc(Br)cc34)CC2)S1 [Compound 72]

IC50 [2, 17]: 20 µM
Structure (SMILES): COc1ccc(CN2CCCN(c3ncnc4sc(C)c(C)c34)CC2)cc1 [Compound 73]

IC50 [2, 17]: 7 µM
Structure (SMILES): CCc1cc2c(N3CCCN(CC(=O)N4CCCC4)CC3)ncnc2s1 [Compound 74]

IC50 [2, 17]: 32 µM
Structure (SMILES): CC(C)c1cc2c(N3CCCN(C4=NCC(C)(C)S4)CC3)ncnc2s1 [Compound 75]

IC50 [2, 17]: 6.3 µM
Structure (SMILES): CCc1cc2c(N3CCCN(C4=NCC(C)(C)S4)CC3)ncnc2s1 [Compound 76]
